Values joined by “and” are separate entries in the source; they are usually repeats but may differ in a detail not shown here. Equal entries are not always repeated.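 Grown in 96-well plates, cells were treated for 48 hours with each compound at five concentrations. Insufficient inhibition: endpoint recorded as highest concentration tested. Abbreviation: GI50, concentration required for 50% inhibition of growth. TGI: concentration producing complete growth inhibition.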
Experiments:
Experiment in all cases: DTP human tumour cell line panel, 48 h
[1] = tested on: SK-OV-3 ovarian
[2] = tested on: SK-MEL-2 melanoma
[3] = tested on: SK-MEL-28 melanoma
[4] = tested on: K-562 leukemia
[5] = tested on: SNB-75 CNS
[6] = tested on: HL-60(TB) leukemia
[7] = tested on: HCC-2998 colon
[8] = tested on: CAKI-1 renal
[9] = tested on: OVCAR-3 ovarian
[10] = tested on: U251 CNS

Structure (SMILES) | GI50 [1] | TGI [1] | GI50 [2] | TGI [2] | GI50 [3] | TGI [3] | GI50 [4] | TGI [4] | GI50 [5] | TGI [5] | GI50 [6] | TGI [6] | GI50 [7] | TGI [7] | GI50 [8] | TGI [8] | GI50 [9] | TGI [9] | GI50 [10] | TGI [10]
CCC(=O)c1ccc2c(c1)N(CCCN1CCN(CCO)CC1)c1ccccc1S2 | 16.8 µM | 31.6 µM | 17.7 µM | 33.4 µM | 2.75 µM | 7.75 µM | 3.24 µM | 9.83 µM | 13.5 µM | 27 µM | 12.7 µM | 30.3 µM | 11.8 µM | 26.1 µM | 13.4 µM | 27.5 µM | 15.6 µM | 29.8 µM | 13.2 µM | 27.9 µM
COc1ccc(-c2cc(-c3nnc(SCC(=O)Nc4ccc(C(C)=O)cc4)o3)c3ccccc3n2)cc1 | 27 µM | 91.6 µM | 30.4 µM | > 100 µM | > 100 µM | > 100 µM | > 100 µM | > 100 µM | 3.65 µM | 22.6 µM | > 100 µM | > 100 µM | > 100 µM | > 100 µM |  |  | 62.6 µM | > 100 µM | 10.2 µM | 55.9 µM
Cn1c(=O)oc2cc(C3CCC(=O)N3Cc3ccc(Cl)cc3)ccc21 (stereo not drawn) |  | > 100 µM |  | > 100 µM |  | > 100 µM |  | > 100 µM |  | > 100 µM |  | > 100 µM |  | > 100 µM |  | > 100 µM |  |  |  | > 100 µM
COc1ccc(-c2csc3c2-n2cccc2C3=O)cc1O | 0.0452 µM | 18.1 µM |  |  |  |  | < 0.01 µM | > 100 µM | 0.0281 µM | > 100 µM | 0.0163 µM | 0.0955 µM | 0.454 µM | 8.71 µM | 0.0497 µM | > 63.2 µM | < 0.0152 µM | 0.0434 µM | 0.0332 µM | > 47.4 µM
COc1ccc2c(c1)[C@@]1(C)CCC3c4ccc(O)cc4CCC3C1C2 (stereo partly drawn) | 15.7 µM | 29.6 µM |  |  | 15.2 µM | 30.3 µM | 14.8 µM | 48.4 µM | 16.6 µM | 30.9 µM | 18.1 µM | 39.1 µM | 18 µM | 32.3 µM | 17.1 µM | 32.7 µM | 14.7 µM | 29.1 µM | 15.6 µM | 29.9 µM
CC(=O)OC12CC(C)C3(O)C4C=C(C)C(=O)[C@@]4(O)CC(CO)=C[C@H]3C1C2(C)C (stereo partly drawn) |  | > 1000 µM | > 1000 µM | > 1000 µM | > 1000 µM | > 1000 µM |  |  | > 1000 µM | > 1000 µM | 0.432 µM and 0.751 µM | > 1000 µM | 2.35 µM |  |  |  | > 1000 µM | > 1000 µM | > 1000 µM | > 1000 µM
COC(=O)C1=Cc2c(cc(OC)c(OC)c2OC)[C@H](c2ccc(OC)c(OC)c2OC)C1C(=O)OC (stereo partly drawn) |  | > 100 µM |  |  |  | > 100 µM |  | > 100 µM |  | > 100 µM |  | > 100 µM |  | > 100 µM |  | > 100 µM |  | > 100 µM |  | > 100 µM
O=C1OCC2=C1C(c1cccc(C(F)(F)F)c1)c1cc3c(cc1N2CCO)CCC3 (stereo not drawn) | 0.179 µM | 8.64 µM | 0.34 µM | 10.6 µM | 1.41 µM | 12.1 µM | 0.174 µM | 28.1 µM |  |  | 0.133 µM | 0.427 µM | 0.177 µM | 6.76 µM | 0.174 µM | 7.46 µM | 0.161 µM | 2.21 µM | 0.199 µM | 7.92 µM
COc1cc2c(c(OC)c1OC)-c1ccc(SC)c(=O)cc1C(CC(=O)Oc1cccc(C#N)c1)C2 (stereo not drawn) |  | > 100 µM |  |  |  | > 100 µM |  |  |  |  |  | 2.35 µM |  | 1.59 µM |  | > 100 µM |  | 0.794 µM |  | 
COc1cc2c3c(n(CCCNCCNCCCN)c(=O)c2cc1OC)-c1cc2c(cc1C3=O)OCO2 | 8.08 µM | > 100 µM | 2.59 µM | 10 µM | 6.6 µM | 20.1 µM | 3.43 µM | > 100 µM | 10.3 µM | 26.7 µM | 6.11 µM | 51.7 µM |  |  | 5.68 µM | 24.1 µM | 2.22 µM | 7.63 µM | 0.0177 µM | 0.422 µM
CCOC(=O)c1cnc2cc3cccccc3n2c1=O |  |  |  | > 100 µM |  | > 100 µM |  | > 100 µM |  | > 100 µM |  | > 100 µM |  | > 100 µM |  | > 100 µM |  | > 100 µM |  | > 100 µM
O=CN1CCN(C=S)CC1 |  | > 100 µM |  |  |  | > 100 µM |  | > 100 µM |  | > 100 µM |  | > 100 µM |  | > 100 µM |  | > 100 µM |  | > 100 µM |  | > 100 µM
CC1CC2(CCC1OCc1ccccc1)OCCO2 (stereo not drawn) |  | > 100 µM |  | > 100 µM |  |  |  | > 100 µM |  |  |  | > 100 µM |  | > 100 µM |  | > 100 µM |  | > 100 µM |  | > 100 µM
C=CCN(CC=C)CC(C(C)=O)C(c1ccccc1)c1c(O)c2ccccc2oc1=O (stereo not drawn) |  | > 100 µM |  | > 100 µM |  | > 100 µM |  | > 100 µM |  | > 100 µM |  | > 100 µM |  | > 100 µM |  | > 100 µM |  |  |  | > 100 µM
Cc1ccc(Oc2nc3ccccc3cc2-c2nnc(Cn3c(COc4ccccc4)nc4ccccc43)o2)cc1 | 11.8 µM | 32.7 µM |  |  |  |  | 2.59 µM | > 100 µM | 2.16 µM | 9.74 µM | 2.85 µM | 7.88 µM | 4.4 µM | 15.3 µM | 2.29 µM | 14.9 µM | 2.41 µM | 6.65 µM | 1.58 µM | 3.62 µM
COc1cc2c(cc1OC)-c1c(c3ccc([N+](=O)[O-])cc3c(=O)n1CCCN)C2=O | 8.81 µM | 20.2 µM | 5.95 µM | 14.1 µM | 7.25 µM | 15.3 µM | 0.955 µM | 2.65 µM |  |  | 1.28 µM | 3.38 µM | 0.0818 µM | 0.759 µM | 0.658 µM | 9.16 µM | 8.42 µM | 18.4 µM | 0.267 µM | 1.05 µM
OCc1ccc(Oc2c3ccccc3nc3occc23)cc1 | 36.8 µM | > 100 µM |  |  | 41.4 µM | > 100 µM | 30.9 µM | > 100 µM | 31.7 µM | 89.8 µM | 27.2 µM | 79.6 µM |  |  | 18.1 µM | 35.8 µM | 22.1 µM | 39.7 µM | 27 µM | 56 µM
CN(C)S(=O)(=O)c1ccc(Nc2ccc(O)c3c2C(=O)c2c([N+](=O)[O-])ccc(O)c2C3=O)cc1 |  | > 100 µM |  | > 100 µM |  | > 100 µM |  | > 100 µM |  | > 100 µM |  | > 100 µM |  |  |  | > 100 µM |  | > 100 µM |  | > 100 µM
Cc1c(O)c(=O)ccn1CCO |  | > 100 µM |  | > 100 µM |  | > 100 µM |  | > 100 µM |  | > 100 µM |  | > 100 µM |  |  |  | > 100 µM |  | > 100 µM |  | > 100 µM
CN1C(=O)C(c2c[nH]c3ccccc23)=C(c2c(-c3c[nH]c4ccccc34)[nH]c3ccccc23)C1=O | 3.14 µM | 13 µM |  |  | 10.4 µM | 31.4 µM | 3.07 µM | > 100 µM | 1.74 µM | 18 µM | 2.41 µM | 8.21 µM |  |  | 1.48 µM | 4.63 µM | 0.92 µM | 2.99 µM | 3 µM | 9.61 µM
NC1=NC(c2ccc(F)cc2)C2=C(N1)c1ccc3ccccc3c1OCC2 (stereo not drawn) | 26.8 µM | > 100 µM | > 100 µM | > 100 µM | 18.6 µM | > 100 µM | 3.1 µM | > 100 µM | 16.5 µM | 70.5 µM | > 100 µM | > 100 µM |  |  | 12.3 µM | 70.6 µM | 2.73 µM | > 100 µM | 8.49 µM | > 100 µM
Clc1cc(Cl)cc(Nc2nc3ccccc3nc2-c2cccs2)c1 |  | 71.1 µM |  | > 100 µM |  |  |  |  |  | > 100 µM |  | > 100 µM |  | > 100 µM |  |  |  | 72 µM |  | 
CCOC(=O)/C(=C\c1ccc(F)cc1)C(C)=O |  | > 100 µM |  | 41.2 µM |  |  |  | > 100 µM |  | 74.2 µM |  | 53.2 µM |  | 26.6 µM |  | > 100 µM |  | > 100 µM |  | 40.7 µM
N/C(=N\c1nc2ccccc2s1)NC(=O)Nc1cccc2ccccc12 |  |  | 0.582 µM | 34 µM | 12.9 µM | > 100 µM | 0.0765 µM | > 100 µM | 0.198 µM | 1.1 µM | 0.283 µM | 0.968 µM | 0.741 µM | > 100 µM |  |  | 0.228 µM | 1.09 µM |  | 
COc1ccc(-n2c3c(c4c(CN(C)C)c(O)c(C)cc42)CCc2ccccc2C3=O)cc1 | > 100 µM | > 100 µM | 48 µM | > 100 µM |  |  | 18.7 µM | 44.4 µM |  |  | 12.3 µM | 43.6 µM | 23.4 µM | 67.8 µM | 24.5 µM | > 100 µM | 34.2 µM | 97.2 µM | 28.3 µM | > 100 µM
